Source: PubChem BioAssay AID2060892 (Molecular Pharmacology Branch, DTP, NCI, 2025)

System: HOP-62 complex spheroids with HUVEC/MSC, viability
Test: Anticancer human tumor HOP-62 cell line growth inhibition [RAS];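 also: spheroids exposed to agents for seven days before readout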;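 as to viability, T/C: 100% = DMSO vehicle control viability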
Conditions: for IC50: curve of first compound; for viability, T/C: stronger effect = lower value
Method in brief: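 Tumour cells grown as complex spheroids with HUVEC endothelial cells and mesenchymal stem cells, treated with RAS pathway inhibitor combinations. Each agent spans half-log steps from near clinical Cmax, or 10 microM where Cmax is unknown.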

[1] = second compound 0.0316 µM, first compound 0.000949 µM
[2] = second compound 0.0316 µM, first compound 0.003 µM
[3] = second compound 0.0316 µM, first compound 0.00949 µM
[4] = second compound 0.0316 µM, first compound 0.03 µM
[5] = second compound 0.0316 µM, first compound 0.0949 µM
[6] = second compound 0.0316 µM, first compound 0.3 µM
[7] = second compound 0.1 µM, first compound 0.000949 µM
[8] = second compound 0.1 µM, first compound 0.003 µM
[9] = second compound 0.1 µM, first compound 0.00949 µM
[10] = second compound 0.1 µM, first compound 0.03 µM
[11] = second compound 0.1 µM, first compound 0.0949 µM
[12] = second compound 0.1 µM, first compound 0.3 µM
[13] = second compound 0.316 µM, first compound 0.000949 µM
[14] = second compound 0.316 µM, first compound 0.003 µM
[15] = second compound 0.316 µM, first compound 0.00949 µM
[16] = second compound 0.316 µM, first compound 0.03 µM
[17] = second compound 0.316 µM, first compound 0.0949 µM
[18] = second compound 0.316 µM, first compound 0.3 µM
[19] = second compound 1 µM, first compound 0.000949 µM
[20] = second compound 1 µM, first compound 0.003 µM
[21] = second compound 1 µM, first compound 0.00949 µM
[22] = second compound 1 µM, first compound 0.03 µM
[23] = second compound 1 µM, first compound 0.0949 µM
[24] = second compound 1 µM, first compound 0.3 µM
[25] = second compound 3.16 µM, first compound 0.000949 µM
[26] = second compound 3.16 µM, first compound 0.003 µM
[27] = second compound 3.16 µM, first compound 0.00949 µM
[28] = second compound 3.16 µM, first compound 0.03 µM
[29] = second compound 3.16 µM, first compound 0.0949 µM
[30] = second compound 3.16 µM, first compound 0.3 µM
[31] = second compound 10 µM, first compound 0.000949 µM
[32] = second compound 10 µM, first compound 0.003 µM
[33] = second compound 10 µM, first compound 0.00949 µM
[34] = second compound 10 µM, first compound 0.03 µM
[35] = second compound 10 µM, first compound 0.0949 µM
[36] = second compound 10 µM, first compound 0.3 µM

C=CC(=O)N1CCN(c2nc(OCC3CCCN3C)nc3c(F)c(-c4nc(N)cc(C)c4C(F)(F)F)c(Cl)cc23)C(C)C1 (stereo unspecified) + C#Cc1c(F)ccc2cc(O)cc(-c3ncc4c(N5CC6CCC(C5)N6)nc(OCC56CCCN5CC(F)C6)nc4c3F)c12
IC50 (second compound 0.0316 µM): > 1000 nM
IC50 (second compound 0.1 µM): > 1000 nM
IC50 (second compound 0.316 µM): > 1000 nM
IC50 (second compound 1 µM): > 1000 nM
IC50 (second compound 3.16 µM): > 1000 nM
IC50 (second compound 10 µM): < 3.16 nM
viability, T/C (second compound 0.0316 µM, first compound 0.00316 µM): 79.5%
viability, T/C (second compound 0.0316 µM, first compound 0.01 µM): 71.2%
viability, T/C (second compound 0.0316 µM, first compound 0.0316 µM): 65.5%
viability, T/C (second compound 0.0316 µM, first compound 0.1 µM): 68.2%
viability, T/C (second compound 0.0316 µM, first compound 0.316 µM): 70.6%
viability, T/C (second compound 0.0316 µM, first compound 1 µM): 62.1%
viability, T/C (second compound 0.1 µM, first compound 0.00316 µM): 86.7%
viability, T/C (second compound 0.1 µM, first compound 0.01 µM): 69.3%
viability, T/C (second compound 0.1 µM, first compound 0.0316 µM): 63.2%
viability, T/C (second compound 0.1 µM, first compound 0.1 µM): 64.7%
viability, T/C (second compound 0.1 µM, first compound 0.316 µM): 69.1%
viability, T/C (second compound 0.1 µM, first compound 1 µM): 63%
viability, T/C (second compound 0.316 µM, first compound 0.00316 µM): 81.7%
viability, T/C (second compound 0.316 µM, first compound 0.01 µM): 68.9%
viability, T/C (second compound 0.316 µM, first compound 0.0316 µM): 62.9%
viability, T/C (second compound 0.316 µM, first compound 0.1 µM): 58.5%
viability, T/C (second compound 0.316 µM, first compound 0.316 µM): 61.1%
viability, T/C (second compound 0.316 µM, first compound 1 µM): 61.8%
viability, T/C (second compound 1 µM, first compound 0.00316 µM): 90%
viability, T/C (second compound 1 µM, first compound 0.01 µM): 73.5%
viability, T/C (second compound 1 µM, first compound 0.0316 µM): 63.1%
viability, T/C (second compound 1 µM, first compound 0.1 µM): 57.9%
viability, T/C (second compound 1 µM, first compound 0.316 µM): 59.2%
viability, T/C (second compound 1 µM, first compound 1 µM): 58.4%
viability, T/C (second compound 3.16 µM, first compound 0.00316 µM): 72.7%
viability, T/C (second compound 3.16 µM, first compound 0.01 µM): 70.1%
viability, T/C (second compound 3.16 µM, first compound 0.0316 µM): 57.4%
viability, T/C (second compound 3.16 µM, first compound 0.1 µM): 61.1%
viability, T/C (second compound 3.16 µM, first compound 0.316 µM): 53.9%
viability, T/C (second compound 3.16 µM, first compound 1 µM): 50%
viability, T/C (second compound 10 µM, first compound 0.00316 µM): 48%
viability, T/C (second compound 10 µM, first compound 0.01 µM): 49.5%
viability, T/C (second compound 10 µM, first compound 0.0316 µM): 43.4%
viability, T/C (second compound 10 µM, first compound 0.1 µM): 48.4%
viability, T/C (second compound 10 µM, first compound 0.316 µM): 43.7%
viability, T/C (second compound 10 µM, first compound 1 µM): 37%

CC1(C)CCC(Nc2ncc(C(F)(F)F)c(-c3c[nH]c4c(P(C)(C)=O)c(C#N)ccc34)n2)CN1 (stereo unspecified) + C#Cc1c(F)ccc2cc(O)cc(-c3ncc4c(N5CC6CCC(C5)N6)nc(OCC56CCCN5CC(F)C6)nc4c3F)c12
IC50 (second compound 0.0316 µM): 2.01 nM
IC50 (second compound 0.1 µM): 1.73 nM
IC50 (second compound 0.316 µM): 2.05 nM
IC50 (second compound 1 µM): 1.8 nM
IC50 (second compound 3.16 µM): 1.33 nM
IC50 (second compound 10 µM): < 0.949 nM
viability, T/C [1]: 76.3%
viability, T/C [2]: 35.9%
viability, T/C [3]: 22.1%
viability, T/C [4]: 24.1%
viability, T/C [5]: 27.6%
viability, T/C [6]: 25.8%
viability, T/C [7]: 72.1%
viability, T/C [8]: 30.1%
viability, T/C [9]: 23.6%
viability, T/C [10]: 24%
viability, T/C [11]: 25.8%
viability, T/C [12]: 28.5%
viability, T/C [13]: 73.2%
viability, T/C [14]: 38.5%
viability, T/C [15]: 21%
viability, T/C [16]: 21.6%
viability, T/C [17]: 26%
viability, T/C [18]: 29.3%
viability, T/C [19]: 75.3%
viability, T/C [20]: 29.9%
viability, T/C [21]: 23.4%
viability, T/C [22]: 25%
viability, T/C [23]: 26%
viability, T/C [24]: 25.2%
viability, T/C [25]: 57.4%
viability, T/C [26]: 32.1%
viability, T/C [27]: 26.4%
viability, T/C [28]: 24.7%
viability, T/C [29]: 27.8%
viability, T/C [30]: 26.4%
viability, T/C [31]: 47.8%
viability, T/C [32]: 30.8%
viability, T/C [33]: 29.3%
viability, T/C [34]: 28.3%
viability, T/C [35]: 31%
viability, T/C [36]: 33.9%

CCc1c2c(nc3ccc(O)cc13)-c1cc3c(c(=O)n1C2)COC(=O)[C@]3(O)CC + C#Cc1c(F)ccc2cc(O)cc(-c3ncc4c(N5CC6CCC(C5)N6)nc(OCC56CCCN5CC(F)C6)nc4c3F)c12
IC50 (second compound 0.0316 µM): 1.14 nM
IC50 (second compound 0.1 µM): 1.31 nM
IC50 (second compound 0.316 µM): 1.19 nM
IC50 (second compound 1 µM): 1.23 nM
IC50 (second compound 3.16 µM): 0.972 nM
IC50 (second compound 10 µM): < 0.949 nM
viability, T/C [1]: 56.3%
viability, T/C [2]: 16.6%
viability, T/C [3]: 11.4%
viability, T/C [4]: 5.6%
viability, T/C [5]: 3.66%
viability, T/C [6]: 2.78%
viability, T/C [7]: 62.9%
viability, T/C [8]: 15.6%
viability, T/C [9]: 10.1%
viability, T/C [10]: 4.19%
viability, T/C [11]: 5.31%
viability, T/C [12]: 3.12%
viability, T/C [13]: 59.1%
viability, T/C [14]: 13.8%
viability, T/C [15]: 8.76%
viability, T/C [16]: 5.75%
viability, T/C [17]: 3.69%
viability, T/C [18]: 3.17%
viability, T/C [19]: 60.8%
viability, T/C [20]: 12.7%
viability, T/C [21]: 7.48%
viability, T/C [22]: 3.47%
viability, T/C [23]: 3.07%
viability, T/C [24]: 2.06%
viability, T/C [25]: 51.1%
viability, T/C [26]: 10.9%
viability, T/C [27]: 6.45%
viability, T/C [28]: 3.95%
viability, T/C [29]: 2.84%
viability, T/C [30]: 2.67%
viability, T/C [31]: 26.9%
viability, T/C [32]: 11.7%
viability, T/C [33]: 8.96%
viability, T/C [34]: 4.94%
viability, T/C [35]: 5.28%
viability, T/C [36]: 3.97%
